Each structure is given as a SMILES string. The source made the active and inactive calls. Bounds are passed on as bounds.

In one assay the target is T1, Coagulation factor XII (Homo sapiens, UniProt P00748).
T1 sequence (P00748 whole entry): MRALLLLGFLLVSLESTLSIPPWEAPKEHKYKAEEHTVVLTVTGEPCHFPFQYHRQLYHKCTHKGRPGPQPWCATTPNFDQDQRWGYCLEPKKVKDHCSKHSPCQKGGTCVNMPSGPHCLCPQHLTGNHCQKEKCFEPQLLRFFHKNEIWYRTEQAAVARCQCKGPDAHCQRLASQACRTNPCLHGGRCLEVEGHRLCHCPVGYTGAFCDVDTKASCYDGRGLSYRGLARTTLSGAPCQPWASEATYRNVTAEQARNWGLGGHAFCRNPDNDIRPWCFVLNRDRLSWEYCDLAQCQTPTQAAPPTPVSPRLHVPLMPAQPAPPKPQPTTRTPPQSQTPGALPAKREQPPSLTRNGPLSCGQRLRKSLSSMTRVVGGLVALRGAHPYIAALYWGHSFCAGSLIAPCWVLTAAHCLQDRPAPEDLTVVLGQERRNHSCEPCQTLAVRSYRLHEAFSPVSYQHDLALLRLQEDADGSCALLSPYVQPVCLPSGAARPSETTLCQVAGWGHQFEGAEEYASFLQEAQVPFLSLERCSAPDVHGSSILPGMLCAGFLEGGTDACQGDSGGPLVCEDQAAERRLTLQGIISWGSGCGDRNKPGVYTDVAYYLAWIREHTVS
The experiment in a line: FXIIa inhibitor potency, concentration-response, biochemical (AID 716). Format: functional.

The subject of the next assay is Streptococcus. In words: Group A Streptococcus viability loss, dose response, counter-screen for streptokinase expression inhibitor project, luminescence, BacTiterGlo (AID 1915).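 Also: potency for reduction of bacterial viability or growth.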 It is filed as functional, organism-based.
The test system of assay [1] is Streptococcus sp. 'group A'. In words: growth inhibition of control SK(-) GAS strain, dose response, counter-screen for streptokinase expression inhibitor project, luminescence, kanamycin, BacTiterGlo, confirmation (AID 1900). Format: functional, organism-based.
The next assay addresses Beta-galactosidase (Escherichia coli, UniProt Q8VNN2). In words: beta-galactosidase enzyme inhibitors and activators, dose response, artefact control for CCR6 antagonist project, biochemical, E. coli enzyme, set 3 (AID 504712). It is filed as functional.
The nature of assay [2]: C. albicans growth with fluconazole, confirmation, fluorescence, retest (AID 2467). It is filed as functional, cell-based.
The nature of assay [3]: NIH-3T3 fibroblast cytotoxicity, dose response, cytotoxicity control, cell-based, fluorescence, Alamar Blue, secondary assay (AID 2327).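 Also: NIH-3T3 mouse fibroblasts cultured with fluconazole at 8 µg/mL.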 Format: functional.
The next assay addresses T2, Streptokinase A (Streptococcus pyogenes serotype M1, UniProt P10520).
T2 sequence (P10520 whole entry): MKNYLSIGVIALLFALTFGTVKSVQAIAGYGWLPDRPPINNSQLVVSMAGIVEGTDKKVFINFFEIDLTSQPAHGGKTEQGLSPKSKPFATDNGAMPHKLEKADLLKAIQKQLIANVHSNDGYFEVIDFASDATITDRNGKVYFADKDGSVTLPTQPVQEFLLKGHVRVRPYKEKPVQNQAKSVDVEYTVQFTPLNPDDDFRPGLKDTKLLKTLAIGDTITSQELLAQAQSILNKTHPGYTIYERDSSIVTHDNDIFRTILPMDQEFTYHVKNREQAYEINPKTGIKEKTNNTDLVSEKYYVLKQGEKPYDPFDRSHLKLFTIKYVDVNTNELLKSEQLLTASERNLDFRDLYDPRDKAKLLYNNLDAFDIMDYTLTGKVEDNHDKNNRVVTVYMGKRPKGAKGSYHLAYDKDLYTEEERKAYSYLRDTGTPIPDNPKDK
The experiment in a line: S. pyogenes streptokinase expression inhibitors, potency, dose response, plasminogen activation absorbance, OD405 (AID 1914).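 Also: secreted streptokinase activity via plasminogen activation per viability signal from cell pellet.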 Format: functional, Streptococcus pyogenes M1 GAS.

Assay [4] deals with DNA damage-inducible transcript 3 protein (Mus musculus, UniProt P35639). Format: functional, Cricetulus griseus.
DNA damage-inducible transcript 3 protein, sequence (P35639 whole entry): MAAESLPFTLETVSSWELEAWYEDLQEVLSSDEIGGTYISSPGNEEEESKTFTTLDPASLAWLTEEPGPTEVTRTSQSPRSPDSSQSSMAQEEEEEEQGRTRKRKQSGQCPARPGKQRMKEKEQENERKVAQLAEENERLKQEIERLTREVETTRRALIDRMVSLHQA
Assay [5] is described as follows: inhibitors of firefly luciferase expression or activity, dose response, H4 neuroglioma cells, luminescence (AID 1990). It is filed as functional, cell-based.
Assay [6] is described as follows: Luminescence Cell-Based Dose Response HTS to Identify Inhibitors of 5'UTR Stem-Loop Driven Prion Protein mRNA Translation in H4 Neuroglioblastoma Cells. [Related pubchem assays: 1827 (Project Summary), 1813 (Primary HTS)]. Format: functional.
Assay [7] has as its target G-protein coupled receptor 35 (Homo sapiens, UniProt Q9HC97). The experiment in a line: GPR35 antagonists blocking zaprinast-driven arrestin recruitment, primary screen, imaging, U2OS, beta-arrestin-GFP, zaprinast agonist (AID 2058).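 Also: antagonist potency meaning inhibition of agonist-induced arrestin redistribution.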 It is filed as functional.
A short description of assay [8]: inhibitors of SNCA 5'UTR-driven reporter translation, confirmation, H4 neuroglioma cells, luminescence (AID 1988). It is filed as functional, cell-based.
For assay [9], the target named is G-protein coupled receptor 55 (Homo sapiens, UniProt Q9Y2T6). In words: GPR55 antagonists blocking LPI-driven arrestin recruitment, primary screen, imaging, U2OS, beta-arrestin-GFP, LPI agonist (AID 2013).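 Also: antagonist potency measured as reduced agonist-driven arrestin aggregation.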 It is filed as functional.
G-protein coupled receptor 55, sequence (Q9Y2T6 whole entry): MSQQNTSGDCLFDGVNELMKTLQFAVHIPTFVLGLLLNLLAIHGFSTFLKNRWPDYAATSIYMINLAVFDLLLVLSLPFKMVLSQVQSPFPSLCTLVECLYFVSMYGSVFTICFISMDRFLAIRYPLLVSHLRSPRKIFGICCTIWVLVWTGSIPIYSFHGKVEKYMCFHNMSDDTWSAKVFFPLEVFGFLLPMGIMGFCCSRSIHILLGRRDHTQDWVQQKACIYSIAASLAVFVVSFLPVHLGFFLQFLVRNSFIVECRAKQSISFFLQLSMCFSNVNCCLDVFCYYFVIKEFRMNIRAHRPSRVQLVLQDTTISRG
Another assay has as its target Troponin, cardiac muscle (Homo sapiens, UniProt P19429+P45379+P63316). The experiment in a line: Fluorescence-based biochemical high throughput dose response assay for activators of the calcium sensitivity of cardiac Regulated Thin Filaments (RTF). [Related pubchem assays (depositor defined):AID493008, AID493018, AID504382, AID504383]. It is filed as protein-complex assay.

Beta-galactosidase, sequence (Q8VNN2 whole entry): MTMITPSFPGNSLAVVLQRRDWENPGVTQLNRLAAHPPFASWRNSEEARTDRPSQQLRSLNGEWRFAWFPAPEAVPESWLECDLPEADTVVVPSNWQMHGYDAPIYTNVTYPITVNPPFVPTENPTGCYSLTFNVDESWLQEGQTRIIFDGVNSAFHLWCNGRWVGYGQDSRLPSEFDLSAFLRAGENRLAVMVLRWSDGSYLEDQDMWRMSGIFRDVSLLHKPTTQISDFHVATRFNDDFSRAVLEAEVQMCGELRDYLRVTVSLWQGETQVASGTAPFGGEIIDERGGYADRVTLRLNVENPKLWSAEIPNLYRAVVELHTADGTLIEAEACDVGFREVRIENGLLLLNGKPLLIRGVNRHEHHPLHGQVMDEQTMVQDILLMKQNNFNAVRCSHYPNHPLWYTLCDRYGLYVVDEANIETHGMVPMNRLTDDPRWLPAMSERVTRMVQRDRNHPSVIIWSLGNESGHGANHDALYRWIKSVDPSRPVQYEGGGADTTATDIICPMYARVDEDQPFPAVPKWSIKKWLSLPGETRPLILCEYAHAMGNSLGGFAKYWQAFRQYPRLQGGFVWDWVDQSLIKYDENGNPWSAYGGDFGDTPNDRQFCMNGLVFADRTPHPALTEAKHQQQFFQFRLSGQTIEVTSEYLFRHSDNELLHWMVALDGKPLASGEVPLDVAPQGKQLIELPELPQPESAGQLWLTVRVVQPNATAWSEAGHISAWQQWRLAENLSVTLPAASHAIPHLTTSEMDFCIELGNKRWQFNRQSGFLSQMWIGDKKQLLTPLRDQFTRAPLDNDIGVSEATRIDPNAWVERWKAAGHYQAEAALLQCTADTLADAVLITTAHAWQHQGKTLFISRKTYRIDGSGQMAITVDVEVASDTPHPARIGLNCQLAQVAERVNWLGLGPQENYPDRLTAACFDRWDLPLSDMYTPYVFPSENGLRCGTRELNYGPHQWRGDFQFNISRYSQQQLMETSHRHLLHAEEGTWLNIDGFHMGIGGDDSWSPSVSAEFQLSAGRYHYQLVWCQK
G-protein coupled receptor 35, sequence (Q9HC97 whole entry): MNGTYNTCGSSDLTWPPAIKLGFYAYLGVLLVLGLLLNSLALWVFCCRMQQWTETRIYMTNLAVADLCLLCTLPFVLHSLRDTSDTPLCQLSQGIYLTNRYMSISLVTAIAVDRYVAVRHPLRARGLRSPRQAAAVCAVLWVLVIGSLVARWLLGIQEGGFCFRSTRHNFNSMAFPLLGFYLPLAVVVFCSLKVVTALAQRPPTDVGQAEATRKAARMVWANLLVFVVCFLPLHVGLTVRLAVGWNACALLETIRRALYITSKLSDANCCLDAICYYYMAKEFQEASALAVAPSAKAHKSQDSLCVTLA

For `Cn1c(COc2ccc(Cl)cc2)nc2ccccc2c1=O`, the IC50 at Coagulation factor XII is > 50 µM (inactive).
With `COCCn1c(SCC(N)=O)nnc1-c1c[nH]c2ccccc12`, the IC50 on Coagulation factor XII was > 50 µM (inactive).
With `Fc1cccc2sc(Nc3nnc(-c4ccco4)o3)nc12`, the EC50 with Streptococcus was 11.2 µM (active); in assay [1], 0.632 µM (active); in [2] it was 2.43 µM (active); in assay [3], 79.4 µM (active); on Streptokinase A, > 150 µM (not active). The IC50 at Beta-galactosidase was > 66.6 µM (inactive).
`Clc1ccc2[nH]c(-c3ccccc3)cc2c1`: the “Absolute IC50 (CHOP)” value in assay [4] was found to be 10 µM.
Turning to `Oc1ccc(/C=N/Nc2nc(-c3ccccc3F)nc3ccccc23)c(O)c1`, the EC50 in assay [5] was 23.2 µM (active); in [6], 18.4 µM (active); in assay [8] it was 6.7 µM (active). Besides, the IC50 in assay [7] is 3.08 µM (active); in [9] it was 1.47 µM (active).
For the compound `N=c1c2c(ncn1Cc1ccco1)Oc1cc(O)ccc1C2c1ccccc1` (stereo unspecified), the EC50 on Troponin, cardiac muscle was > 71.4 µM (inactive). Further, in assay [9], the IC50 is 1.2 µM (active).

These data come from ChEMBL document CHEMBL1201862, “PubChem BioAssay data set” (2004).
